Measurements taken from patent publication US20220370381A1 (priority 2016, published 2022).

Assays:
[1] = target: T1, human β-2 adrenergic receptor (Homo sapiens, UniProt P07550); assay: Competitive radioligand binding assay, β2-adrenergic; conditions: test article 1×10^−6 and 1×10^−5 mol/L; human recombinant
[2] = test system: wild-type zebrafish (ZF) larvae; assay: PTZ-induced seizures in wild-type zebrafish larvae, behavioral (locomotor) assay; type: in vivo; conditions: wt zebrafish; p>0.05 vs. VHC+PTZ
[3] = target: T1, human β-2 adrenergic receptor; assay: β-2 adrenergic receptor antagonist assay, agonist-induced cAMP production (HTRF); type: cell-based; design: expressed in transfected cells; host or cells: HEK-293; conditions: inhibition of isoproterenol-induced cAMP production
Protocol: Transfected HEK-293 cells expressing human β-1 adrenergic receptor, human β-2 adrenergic receptor, and human β3 adrenergic receptor, respectively, were prepared using cloned human cDNA. See H FRIELLE, T., COLLINS, S., DANIEL, K. W., CARON, M. G., LEFKOWITZ, R. J., KOBILKA, B. K. (1987), Cloning of the cDNA for the human beta1-adrenergic receptor, Proc. Natl. Acad. Sci. U.S.A., 84,7920, and BAKER, J. G. (2005) The selectivity of Beta-adrenoreceptor antagonists at the human Beta1, Beta2 and Beta3 adrenoreceptor, Brit.
Transfected cells were suspended in HBSS buffer (Invitrogen) complemented with 20 mM HEPES (pH 7.4) and 500 μM IBMX. […] The cells were then distributed in 96 well microplates (see FIG. 15 for plating densities).
After plating, the cells were induced by adding reference agonist. See FIG. 15 for reference agonists and concentrations used for each assay. […] The cells were then incubated 30 minutes at room temperature.
Subsequently, the cells were lysed and a fluorescence acceptor (D2-labeled cAMP) and a fluorescence donor (anti-cAMP antibody labeled with europium cryptate) were added to the wells.
Standard reference antagonists were tested in each experiment at several concentrations to generate a concentration-response curve from which its IC50 value is calculated.
EC50 values (concentration producing a half-maximal response) and IC50 values (concentration causing a half-maximal inhibition of the control agonist response) were determined by non-linear regression analysis of the concentration-response curves generated with mean replicate values using Hill equation curve fitting: […]
For the antagonists, the apparent dissociation constants (KB) were calculated using the modified Cheng Prusoff equation:
KB=IC50/[1+(A/EC50A)], where

[4] = target: T2, Sigma 1 (Cavia porcellus, UniProt Q60492); assay: Sigma-1 receptor tissue bioassay, guinea pig vas deferens, agonist activity (twitch contraction); design: Segments of guinea pig vas deferens were suspended in 20-ml organ baths; from tissue; host or cells: guinea pig vas deferens; conditions: field-stimulated guinea pig vas deferens, compound alone
T2 sequence (Q60492 whole entry): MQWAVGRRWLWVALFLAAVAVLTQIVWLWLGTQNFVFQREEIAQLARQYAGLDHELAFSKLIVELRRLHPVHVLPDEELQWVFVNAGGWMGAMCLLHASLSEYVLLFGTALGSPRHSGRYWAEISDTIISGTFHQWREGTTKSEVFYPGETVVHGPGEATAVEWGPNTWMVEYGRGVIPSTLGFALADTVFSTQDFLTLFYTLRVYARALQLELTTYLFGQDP

[5] = test system: DBA/1 mice; assay: Audiogenic seizures (AGSz) in DBA/1 mice; type: in vivo, mouse
[6] = test system: T3, β-Adrenergic (Non-selective); assay: Competitive radioligand binding assay, β-adrenergic (non-selective); design: species or system Rat; conditions: test article 1×10^−6 and 1×10^−5 mol/L; rat brain
T3 construct: β-1 adrenergic; other: test article 1×10^−6 and 1×10^−5 mol/L; rat brain

[7] = test system: DBA/1 mice; assay: Seizure-induced respiratory arrest (S-IRA) in DBA/1 mice; type: in vivo, mouse
[8] = test system: CRL NMRI mice; assay: Mouse 6-Hz model of refractory seizures; type: in vivo; conditions: 5.0 or 20.0 mg/kg i.p.
Protocol: The 6 Hz mouse model is a model system used to assess the efficacy of putative anti-seizure medications for refractory epilepsies generally, without regard to type.
The efficacy of FA in the mouse 6-Hz model was assessed by behavioral characterization after intraperitoneal injection of CRL NMRI mice (30-35 g) with VHC (50/50 DMSO/PEG200) or FA (5.0 or 20.0 mg/kg). Animals were placed in one of three treatment groups: vehicle (n=10), FA 5 mg/kg (n=6) and FA 20 mg/kg (n=6). Seizures were transcorneal-induced 1 h after injection (6-Hz, 0.2 ms pulse width, 44 mA).

[9] = target: hNav1.5 (Homo sapiens, UniProt Q14524); assay: Ion channel profiling, IonFlux HT automated patch clamp, hNav1.5
hNav1.5, sequence (Q14524 whole entry): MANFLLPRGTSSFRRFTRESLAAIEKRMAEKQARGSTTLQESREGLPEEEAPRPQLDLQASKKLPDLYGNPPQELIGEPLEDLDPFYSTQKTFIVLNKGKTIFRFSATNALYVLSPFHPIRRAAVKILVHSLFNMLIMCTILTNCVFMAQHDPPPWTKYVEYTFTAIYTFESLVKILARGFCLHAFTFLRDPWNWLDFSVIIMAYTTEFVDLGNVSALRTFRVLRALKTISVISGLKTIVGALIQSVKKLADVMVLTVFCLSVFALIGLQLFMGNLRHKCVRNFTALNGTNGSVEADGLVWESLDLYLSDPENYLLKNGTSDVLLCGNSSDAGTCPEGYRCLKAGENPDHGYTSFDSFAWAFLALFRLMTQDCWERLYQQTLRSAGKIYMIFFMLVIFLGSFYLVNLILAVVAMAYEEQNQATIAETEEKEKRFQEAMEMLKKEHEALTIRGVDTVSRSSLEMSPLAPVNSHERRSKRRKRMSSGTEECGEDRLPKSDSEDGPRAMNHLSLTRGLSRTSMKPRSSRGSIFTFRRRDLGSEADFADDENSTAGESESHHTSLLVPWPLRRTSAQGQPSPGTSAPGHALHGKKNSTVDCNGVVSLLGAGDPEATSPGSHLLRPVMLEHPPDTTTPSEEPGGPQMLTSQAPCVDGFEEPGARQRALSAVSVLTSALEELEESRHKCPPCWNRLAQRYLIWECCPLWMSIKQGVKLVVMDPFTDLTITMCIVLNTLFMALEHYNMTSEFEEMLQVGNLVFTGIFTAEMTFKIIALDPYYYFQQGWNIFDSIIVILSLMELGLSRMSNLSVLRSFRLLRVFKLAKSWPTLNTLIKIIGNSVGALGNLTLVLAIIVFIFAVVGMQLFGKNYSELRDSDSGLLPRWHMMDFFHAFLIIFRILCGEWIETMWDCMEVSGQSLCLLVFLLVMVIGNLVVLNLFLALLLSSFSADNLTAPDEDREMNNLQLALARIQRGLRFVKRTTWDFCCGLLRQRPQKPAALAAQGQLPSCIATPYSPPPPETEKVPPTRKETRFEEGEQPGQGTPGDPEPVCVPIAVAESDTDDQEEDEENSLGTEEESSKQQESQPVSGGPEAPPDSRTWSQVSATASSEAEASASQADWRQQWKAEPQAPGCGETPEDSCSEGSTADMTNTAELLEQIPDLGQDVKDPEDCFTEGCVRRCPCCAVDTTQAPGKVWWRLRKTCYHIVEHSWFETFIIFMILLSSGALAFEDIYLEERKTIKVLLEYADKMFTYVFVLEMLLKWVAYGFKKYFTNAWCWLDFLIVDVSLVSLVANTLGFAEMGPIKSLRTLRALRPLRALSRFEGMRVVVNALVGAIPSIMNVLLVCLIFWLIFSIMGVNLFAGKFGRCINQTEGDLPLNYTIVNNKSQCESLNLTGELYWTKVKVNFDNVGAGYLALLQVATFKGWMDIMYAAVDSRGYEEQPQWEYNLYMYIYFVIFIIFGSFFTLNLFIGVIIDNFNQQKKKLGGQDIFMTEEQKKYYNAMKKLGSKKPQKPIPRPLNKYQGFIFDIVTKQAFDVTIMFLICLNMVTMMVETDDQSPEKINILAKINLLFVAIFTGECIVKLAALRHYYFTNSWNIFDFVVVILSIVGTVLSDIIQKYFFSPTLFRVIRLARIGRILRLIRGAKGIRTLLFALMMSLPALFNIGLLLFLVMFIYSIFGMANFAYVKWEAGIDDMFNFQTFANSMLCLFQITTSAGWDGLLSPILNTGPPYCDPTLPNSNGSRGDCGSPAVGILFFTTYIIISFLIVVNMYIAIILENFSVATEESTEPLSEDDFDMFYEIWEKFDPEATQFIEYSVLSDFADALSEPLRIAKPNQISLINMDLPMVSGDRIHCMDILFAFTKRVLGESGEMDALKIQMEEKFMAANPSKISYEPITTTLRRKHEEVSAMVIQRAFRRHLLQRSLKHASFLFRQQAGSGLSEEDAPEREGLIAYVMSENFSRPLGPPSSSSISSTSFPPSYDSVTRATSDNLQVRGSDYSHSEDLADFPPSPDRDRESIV

[10] = test system: Swiss OF-1 mice; assay: Step-through passive avoidance, dizocilpine-induced deficit; type: in vivo, mouse
[11] = test system: homozygous scn1Lab−/− mutant zebrafish; assay: Forebrain local field potential (LFP) recordings in homozygous scn1Lab−/− mutant zebrafish larvae; type: in vivo; conditions: 25, 50 or 100 μM for 24 h; p<0.05 vs. VHC
Protocol: (§1) ZF larvae were treated on 6 dpf with vehicle (VHC, 0.1% dimethyl sulfoxide, DMSO, or FA (25, 50 or 100 μM) for 24 h. Thereafter, the locomotor activity (behavior) was monitored by an automated tracking device. Subsequently, forebrain local field potentials and forebrain activity (LFPs, brain activity) were measured to confirm anticonvulsant effects of FA treatment, if indicated by the behavioral assays.

[12] = target: T2, Sigma 1; assay: Sigma-1 receptor tissue bioassay, guinea pig vas deferens, antagonist activity ((+)SKF-10047-induced response); design: Segments of guinea pig vas deferens were suspended in 20-ml organ baths; from tissue; host or cells: guinea pig vas deferens
[13] = test system: homozygous scn1Lab−/− mutant zebrafish; assay: Locomotor (behavioral) assay in homozygous scn1Lab−/− mutant zebrafish larvae (Dravet syndrome model); type: in vivo; conditions: 25, 50 or 100 μM for 24 h, 6 dpf larvae; p<0.05 vs. VHC
Protocol: as §1

T1 sequence (P07550 whole entry): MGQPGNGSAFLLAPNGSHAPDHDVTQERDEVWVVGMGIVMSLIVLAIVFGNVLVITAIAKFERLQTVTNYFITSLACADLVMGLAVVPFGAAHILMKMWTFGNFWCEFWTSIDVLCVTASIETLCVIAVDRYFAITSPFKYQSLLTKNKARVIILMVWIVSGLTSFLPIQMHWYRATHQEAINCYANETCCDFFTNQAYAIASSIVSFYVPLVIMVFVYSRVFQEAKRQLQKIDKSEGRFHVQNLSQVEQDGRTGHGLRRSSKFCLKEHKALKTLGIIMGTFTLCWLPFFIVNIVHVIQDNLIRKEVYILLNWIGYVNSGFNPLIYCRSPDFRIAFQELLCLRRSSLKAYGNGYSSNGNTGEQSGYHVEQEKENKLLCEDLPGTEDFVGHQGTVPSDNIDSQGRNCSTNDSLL

Compound: CCNC(C)Cc1cccc(C(F)(F)F)c1 (racemic) [fenfluramine, (RS)—N-ethyl-1-[3-(trifluoromethyl)phenyl]propan-2-amine]
- inhibition of receptor binding (tracer) [1]: significantly inhibit
- antiseizure effect on PTZ-induced seizures [2]: no observable antiseizure effects
- antagonist activity at the beta-2 adrenergic receptor [3]: some antagonist activity
- effect on twitch contraction amplitude [4]: did not significantly affect
- seizure severity ([5]; 15 mg/kg, at 16h, p<0.05): significantly reduced seizure severity
- time at which seizure susceptibility returned ([5]; 40 mg/kg): 48 h
- seizures ([5]; 40 mg/kg, at 30 min, p<0.001): completely blocked seizures
- ED50 ([5]; Mus musculus, ip, 0.5 h, i.p., at 30 min, read-out: ED50, blockade of susceptibility to audiogenic seizures (AGSz)): 31 mg/kg
- ED50, blockade of susceptibility to audiogenic seizures (AGSz) ([5]; i.p., at 30 min, listed as FFA): 21.4 mg/kg
- inhibition of receptor binding (tracer) [6]: significantly inhibit
- effect on seizures and S-IRA ([7]; 5 mg/kg): ineffective
- S-IRA ([7]; 15 mg/kg, at 16h, p<0.001): selective S-IRA blocking effect
- time at which S-IRA susceptibility returned ([7]; 40 mg/kg): 72 h
- S-IRA incidence and seizure severity ([7]; 10-20 mg/kg, at 8h): reduction in S-IRA incidence and seizure severity
- S-IRA susceptibility and seizure severity ([7]; 10 and 15 mg/kg, at 12h): significantly (p<0.01) reduced S-IRA susceptibility and seizure severity
- ED50 ([7]; Mus musculus, ip, 0.5 h, read-out: ED50, blockade of seizure-induced respiratory arrest (S-IRA)): 18.6 mg/kg
- time by which susceptibility to seizure and S-IRA returned ([7]; time course study, 5-20 mg/kg): ≤ 48 h
- period of post-seizure aggression [8]: did not
- seizures in the mouse 6-Hz model ([8]; 1 h before 6-Hz 44 mA stimulation, p<0.05 vs. VHC): significantly reduced seizures
- IC50 [9]: > 30 µM
- dose attenuating dizocilpine-induced deficit in passive avoidance response (minimal active dose) ([10]; IP, 0.1 mg/kg not active): 0.3 mg/kg
- dizocilpine-induced deficit of passive avoidance learning ([10]; dizocilpine […], most active doses 0.3 and 1 mg/kg IP): significantly attenuated
- epileptiform brain activity (LFP recordings) [11]: anti-epileptiform activity was consistently confirmed
- behaviour at the sigma receptor (mode of action) ([12]; conclusion from guinea pig vas deferens tissue bioassay): positive allosteric modulators
- effect on the (+)SKF-10,047-induced increase in twitch contraction amplitude ([12]; field-stimulated guinea pig vas deferens, (+)SKF-10047 100 μM): slightly increased
- epileptiform behavior (locomotor activity) [13]: significantly decreased
